Data from US11759480B2, “Compositions and methods for CAR T cell therapy” (ENDOCYTE, INC., priority 2017, dated 2023).
Values belong to the compound of their own block, whether it stands above or below them.

Tests used:
[1] = test system: MDA-MB-231 solid tumor xenografts; experiment: Control of CAR T cell activation in vivo: break, FA competitor or both (Example 19)
Experimental: Five study groups were designed to test whether anti-FITC CAR T cell activation can be controlled via temporal termination of FITC-ligands, by administering a competitor small molecule, or a combination approach of both discontinuing of FITC-ligands and/or administering an FA competitor. The first group was treated by administering anti-FITC CAR T cell with phosphate-buffered saline (PBS) as a negative control. Every other day over the course of the study, the second, third, fourth and fifth groups were treated with anti-FITC CAR T cell mixed with FITC-Folate (500 nmole/kg). […] Mouse bodyweight was measured regularly to test for toxicity.

[2] = test system: MDA-MB-231 solid tumor xenografts; assay type: in vivo
Experimental: MDA-MB-231 cells were subcutaneously injected into the shoulders of NSG mice (Jackson Laboratory) to establish solid tumor xenografts. When tumor volume reached around 50-100 mm^3, anti-FITC CAR T cells (15×10^6 cells) were intravenously introduced into tumor-bearing mice. Twenty NSG mice were divided into four study groups (5 animals in each group). The first group was treated with anti-FITC CAR T cells with phosphate-buffered saline (PBS) as a negative control. The second, third, and fourth groups were treated with anti-FITC CAR T cells with FITC-Folate (500 nmole/kg) every other day. Once a significant toxicity (e.g. serious loss of body weight) was detected, these groups were treated with either: continued FITC-Folate administration (second group); discontinuation of FITC-Folate administration until the mice recovered (third group); or a mixture of 100-fold excess of EC0923 (i.e. free folate) and FITC-Folate until the mice recovered (fourth group). The body weight was measured regularly to monitor toxicity. In addition, the blood concentration of interferon (IFN)-gamma for each treatment group was measured to monitor the degree of anti-FITC CAR T activation. Finally, tumor volume was measured to identify anti-tumor efficacy in each treatment group.

[3] = test system: MDA-MB-231 tumors; experiment: Rescue ability of competitors during CAR T cell treatment (Example 23); assay type: in vivo, mice; details: for time until mice looked normal / time until mice started to move and look for food / time until mice were active again: one i.v. dose 10 μmoles/kg at sCRS
Experimental: When severe cytokine release syndrome was observed, one dose of EC0923 (folate) or untethered fluorescein (both at 10 μmoles/kg) was introduced intravenously to rescue mice (FIG. 16). Mice with one dose of EC0923 or fluorescein started to move and look for food after 4 hours, were active again in 24 hours, and looked normal in 4 days. EC17 administration was then continued. Control mice without EC0923 or fluorescein didn't move after 4 hours, and had to be euthanized because of the sickness. […] All mice tested for cytokine production were injected with 8 million CAR-T cells.

[4] = test system: severe cytokine release syndrome in mice bearing tumors; experiment: Rescue ability of EC0923 during CAR T cell treatment (Example 18); assay type: in vivo
Experimental: CAR T cells were introduced into mice bearing tumors and EC17 was also introduced (i.v.) three times per week. When severe cytokine release syndrome was observed, one dose of EC0923 at 10 μmoles/kg was introduced to rescue mice. Mice were monitored for 4 more days, and some were euthanized to evaluate organs. Mice with one dose of EC0923 started to move and look for food after 4 hours, and their spleens and livers were red. Control mice without EC0923 didn't move after 6 hours, and their spleens and livers were pale. Mice with EC0923 treatment were active again in 24 hours and expected to survive, and were put back to a normal EC17 dosing schedule. Control mice without EC0923 started to move a little in 24 hours, but had to be euthanized to prevent animal suffering. Mice with EC0923 looked normal in 4 days. One of the mice was euthanized and found to have normal colored spleen and liver. […] Other remaining mice with EC0923 were given routine EC17 dosing three times per week, and their tumors disappeared in 4 weeks.

[5] = test system: MDA-MB-231 tumors; experiment: CAR-T number in blood after rescue with EC0923 or fluoresceinamine (Example 31); assay type: in vivo, NSG mice; details: for earliest time of increased CAR-T count in blood: 10 umol/kg i.v.; for CAR-T number in blood: 10 umol/kg i.v. at sCRS
Experimental: EC17/CAR-T therapy strategy is controllable through bridge displacement by either free folate or free fluorescein. […] Mice from three groups were then euthanized at 8, 12, 24 and 48 hours post injection of EC0923 or fluoresceinamine, and their blood samples were analyzed for CAR-T cell number and cytokine levels. CAR-T cells in blood were stained with anti-human CD45 antibody labeled with APCeF780 (Biolegend) and counted by FACS. CountBright™ Absolute Counting Beads (ThermoFisher Scientific) were mixed into the samples and used as a reference for cell counting.

[6] = test system: PSMA+ MDA-MB-231 and CA9+ MDA-MB-231; experiment: Two tumors treated with cocktail of bridge molecules in vivo (Example 42); set-up: species or system NSG mice; details: only one of the bridges infused
Text: In order to evaluate whether a cocktail of bridge molecules can eliminate two tumors expressing orthogonal antigens, we established two different tumor models. As a first tumor model, each of PSMA+ MDA-MB-231 and CA9+ MDA-MB-231 were implanted into NSG mice at two different locations (i.e. right flank: CA9+ MDA-MB-231, left flank: PSMA+ MDA-MB-231). For the second tumor model, PSMA+ MDA-MB-231 and CA9+ MDA-MB-231 were pre-mixed at a 1:1 ratio and implanted at one location.
PSMA+ MDA-MB-231 and CA9+ MDA-MB-231 were implanted into NSG mice (Jackson Laboratory, ME) either at two different locations (i.e. right flank: PSMA+ MDA-MB-231, left flank: CA9+ MDA-MB-231) or one location after two tumor cells were pre-mixed (i.e. 50% of PSMA+ MDA-MB-231 and 50% of CA9+ MDA-MB-231). When tumors reached ˜100 mm3 in size, anti-fluorescein CAR T cells (8×10^6) were injected plus FITC-DUPA, FITC-CA9 or both. Tumors were measured every other day with calipers, and tumor volume was calculated according to the equation: Tumor volume=½(L×W2) where L is the longest axis of the tumor and W is the axis perpendicular to L. Results are shown in FIGS. 49A and 49B.

[7] = test system: anti-fluorescein scFv on CAR T cells; experiment: Competitive binding assay against FITC-Alexa647 on CAR T cells; details: 1 μM competing ligand versus FITC-Alexa647 10 nM
Experimental: To examine the ability of bridge molecules to bind anti-fluorescein scFv on CAR T cells, a competitive binding assay was developed. Measurement of the fluorescein signal from CAR T cell bound bridges could not be used due to the overlap of its fluorescence with that of the GFP expressing CAR T cells. For this purpose, FITC-Alexa647 (10 nM) was allowed to bind anti-fluorescein CAR T cells in the absence or presence of excess (1 μM) competing ligand (i.e. FITC-folate, FITC-DUPA, FITC-CA9) for 1 h at room temperature. After incubation, anti-fluorescein CAR T cells were washed 3× with PBS to remove unbounded FITC-Alexa647, and the washed cells were analyzed for Alexa647 fluorescence by flow cytometry.
Fluorescein-folate (FITC-folate) and fluorescein-PSMA (FITC-DUPA) were synthesized as previously described. To examine the ability of these bridge molecules to bind anti-fluorescein scFv on CAR T cells, a competitive binding assay had to be developed, because measurement of the fluorescein signal from CAR T cell bound bridge could not be used due to the overlap of its fluorescence with that of the GFP expressing CAR T cells. For this purpose, FITC-Alexa647 (10 nM) was allowed to bind anti-fluorescein CAR T cells in the absence or presence of excess (1 μM) competing ligand (i.e. FITC-folate) for 1 h at room temperature. After incubation, anti-fluorescein CAR T cells were washed 3× with PBS to remove unbounded FITC-Alexa647, and the washed cells were analyzed for Alexa647 fluorescence by flow cytometry. For analysis of FITC-folate to binding to folate receptor, FR positive KB cells were incubated with FITC-folate (100 nM) in the absence or presence of excess (10 μM) free folate (i.e. as a competitive ligand). After washing samples with PBS (3 times), samples were analyzed by flow cytometry for fluorescein-folate binding.

[8] = test system: MDA-MB-231 tumors; experiment: Comparison of three rescue reagents (Example 32); details: for order of sCRS severity (from worst to least): 10 hours after rescue, Leucovorin 10, folic acid 10, sodium fluorescein 260 umol/kg; for tumor outcome of rescued mice: single rescue dose, EC17 continued
Experimental: To evaluate whether mice with FITC-CAR-T therapy related sCRS can be rescued by using competitors which may displace EC17 from either FITC-CAR-T or FR+ tumor cells, 49 NSG mice bearing MDA-MB-231 tumors (150-250 mm3) were administered with excess FITC-CAR-T cells (8 million), 36 of them were then dosed with 500 nmol/kg EC17 48 hours post CAR-T administration, 6 of them were not dosed with EC17 and were used as “No EC17” control, and 7 of them were dosed with 260 umol/kg sodium fluorescein (no EC17 but Fluorescein) to test its toxicity. […] Each group was i.v. injected with 10 umol/kg of Leucovorin, or 10 umol/kg folic acid, or 260 umol/kg sodium fluorescein, or nothing as an un-rescued control. […] Mouse body weight changes were also monitored as the indication of toxicity. […] To evaluate whether the rescue injections affect the anti-tumor activity of FITC-CAR-T cells, these mice were dosed with 500 nmol/kg EC17 twice per week (days 9, 11, 15, 18, 22, 25, etc.) and the tumor size was monitored.

[9] = test system: MDA-MB-231 cells; experiment: Control of CRS with bridge molecules in vivo (Example 43); set-up: species or system NSG mice
Experimental: Mice were maintained on folic acid-deficient diet (TD.95247, Envigo) in order to reduce the level of folic acid in mice to a physiological levels found in humans. Tumors were measured every other day with calipers, and tumor volume was calculated according to equation: Tumor volume=½(L×W^2) where L is the longest axis of the tumor and W is the axis perpendicular to L. Mouse blood was also collected to measure cytokine levels (e.g. IL-2, IL-6, IFNγ, and TNFα) using LEGENDplex bead-based immunoassay (Biolegend, CA) and systemic toxicity was monitored by measuring body weight loss. All animal care and use followed by National Institutes of Health (NIH) guidelines and all experimental protocols were approved by the Purdue Animal Care and Use Committee.

[10] = test system: MDA-MB-231; experiment: Effect of Folate-FITC on CAR-T cell number and serum cytokines (Example 21); assay type: in vivo, NSG mice; details: 500 nmole/kg, 10^7 CAR T cells, Day 6
Experimental: The triple negative human breast cancer cell line (i.e. MDA-MB-231) was subcutaneously implanted into the shoulders of immunodeficient (e.g. NSG) mice. When tumor volume reached around 50-100 mm^3, anti-FITC CAR T cells (10^7 cells) were intravenously introduced with either FITC-folate (500 nmole/kg) or PBS. To monitor CAR T cell proliferation and pro-inflammatory cytokine production, mice blood was collected at Day 6. CAR T cell proliferation was evaluated by staining a whole blood sample with anti-human CD3 antibody (Biolegned) and detecting GFP expression on the CD3 positive T cell population. Pro-inflammatory cytokine production was measured by a bead-based immunoassay (Legendplex kit from biolegend).

[11] = within 3 hours, 6 μmole/kg free fluorescein
[12] = 100-fold excess on days 4 and 6

Compound: Nc1nc(=O)c2nc(CNc3ccc(C(=O)N[C@@H](CCC(=O)O)C(=O)O)cc3)cnc2[nH]1 [EC0923]
- control of CAR T cell mediated toxicity ([1]; 100-fold excess with FITC-Folate (FITC-Folate+FA Competitor)): able to control the degree of CAR T cell activation to alleviate CAR T cell mediated toxicity
- control of CAR T cell mediated toxicity ([1]; termination of FITC-Folate plus excess free folic acid (Break+FA Competitor)): better efficacy in decreasing CAR T cell mediated toxicity compared to each approach alone
- IFN-gamma blood concentration ([2]; competitor group): decreased
- survival of mice at the first week of treatment ([2]; competitor group: 100-fold excess of free folate mixed with FITC-Folate at day 4 and day 6): all of the mice in both the break and competitor groups survived

Compound: Nc1nc2ncc(CNc3ccc(C(=O)N[C@@H](CCCN[C@H](CC(=O)O)C(=O)N[C@H](CC(=O)O)C(=O)O)C(=O)O)cc3)nc2c(=O)[nH]1 [EC0923]
- time until mice looked normal [3]: 4 days
- time until mice started to move and look for food [3]: 4 h
- time until mice were active again [3]: 24 h
- tumor outcome four weeks later ([3]; rescue treatment, EC17 continued): tumors were eliminated
- complete response ([2]; competitor group (100-fold excess EC0923 + FITC-Folate)): 75%
- time until mice looked normal ([4]; one dose 10 μmoles/kg at sCRS): 4 days
- time until mice started to move and look for food ([4]; one dose 10 μmoles/kg at sCRS): 4 h
- time until mice were active again ([4]; one dose 10 μmoles/kg at sCRS): 24 h
- time until tumors disappeared ([4]; rescued mice, routine EC17 dosing three times per week resumed): 4 weeks
- earliest time of increased CAR-T count in blood [5]: 6 h
- CAR-T number in blood [5]: increase of CAR-T number in blood circulation

Compound: O=C(O)CC[C@H](NC(=O)N[C@@H](CCC(=O)NCCCCCCCC(=O)N[C@@H](Cc1ccccc1)C(=O)N[C@@H](Cc1ccccc1)C(=O)NCCNC(=S)Nc1ccc(-c2c3ccc(=O)cc-3oc3cc(O)ccc23)c(C(=O)O)c1)C(=O)O)C(=O)O [FITC-DUPA]
- growth of tumor expressing unmatched antigen [6]: continuously grew
- binding to CAR-expressing T cells [7]: able to bind to the CAR-expressing T cells

Compound: Nc1nc2c(c(=O)[nH]1)N(C=O)C(CNc1ccc(C(=O)N[C@@H](CCC(=O)O)C(=O)O)cc1)CN2 (some centres unmarked) [Leucovorin]
- order of sCRS severity (from worst to least) [8]: no rescue group>leucovorin rescue group>folic acid rescue group>sodium fluorescein rescue group>no EC17 group
- tumor outcome of rescued mice [8]: complete response

Compound: O=C1OC2(c3ccc(O)cc3Oc3cc(O)ccc32)c2ccccc21 [fluorescein, reference compound]
- time until mice looked normal [3]: 4 days
- time until mice started to move and look for food [3]: 4 h
- time until mice were active again [3]: 24 h
- time to decrement of plasma IFNγ ([9]; post fluorescein injection): 6 h
- decrease of plasma IL-2 [9, 11]: > 50%
- decrease of plasma IL-6 [9, 11]: > 50%
- decrease of plasma TNF-α [9, 11]: > 50%

- CAR-T displacement compared with EC0923 ([5]; 10 umol/kg): more CAR-T displacement than folate
Compound: Nc1ccc2c(c1)C(=O)OC21c2ccc(O)cc2Oc2cc(O)ccc21 [fluoresceinamine]
- earliest time of increased CAR-T count in blood [5]: 6 h
- CAR-T number in blood [5]: increase of CAR-T number in blood circulation

Compound: Nc1nc2ncc(CNc3ccc(C(=O)N[C@@H](CCC(=O)O)C(=O)O)cc3)nc2c(=O)[nH]1 [folic acid, reference compound]
- order of sCRS severity (from worst to least) [8]: no rescue group>leucovorin rescue group>folic acid rescue group>sodium fluorescein rescue group>no EC17 group
- tumor outcome of rescued mice [8]: complete response
- IFNγ level [9, 12]: reduced the level of IFNγ
- body weight [9, 12]: rapidly prevented the continuous weight loss
- therapeutic potency of CAR T cell therapy [9, 12]: enhanced the therapeutic potency

Compound: FITC-Folate [EC17]
- anti-FITC CAR T cell proliferation in blood [10]: proliferated significantly
- pro-inflammatory cytokines (IL-2, TNF-α, IFN-γ) [10]: significantly produced

Compound: FITC-PEG2-CA9 [FITC-CA9]
- growth of tumor expressing unmatched antigen [6]: continuously grew
- binding to CAR-expressing T cells [7]: able to bind to the CAR-expressing T cells
